Test results as given in US7179908B2, “Water-and organic-soluble cucurbituril derivatives, their preparation methods, their separation methods and uses” (Pohang University of Science and Technology Foundation, priority 2001, dated 2007).
≈ marks a conversion by molar mass, not a printed value.

Experiments:
[1] = Solubilities of the cucurbituril derivatives in water, methanol, dimethylsulfoxide and acetonitrile; assay type: physicochemical
[2] = Binding constant measured using a microcalorimeter (VP-ITC); details: 0.05 M tris buffered solution pH 7.2
Method: A 5.5 mM CB*[5] solution and 110 mM-KCl solution were prepared with 0.05 M tris buffered solution having a pH of 7.2. Then, the binding constant of CB*[5] was measured using a microcalorimeter (VP-ITC, manufactured by MicroCal). As a result, CB*[5] forms a 1:2 complex with potassium ions with a primary binding constant of 2.8×10^4 M^−1 and a secondary binding constant of 1.5×10^2 M^−1. CB*[5] can selectively bind with alkali metal ions, as well as with ammonium ions. The result confirms that cucurbituril derivatives can be used as ion sensors.

O=C1N2CN3C(=O)N4CN5C(=O)N6CN7C(=O)N8CN9C(=O)N%10CN1C1%11CCCCC21N1CN2C(=O)N(CN%12C(=O)N(CN%13C(=O)N(CN%14C(=O)N(CN%11C1=O)C%101CCCCC9%141)C81CCCCC7%131)C61CCCCC5%121)C41CCCCC321 (stereo not shown) [CB*[5]]
Solubility ([1]; Acetonitrile): 0.67 mM (≈ 0.738 mg/mL)
Solubility ([1]; Dimethylsulfoxide): 18 mM (≈ 19.8 mg/mL)
Solubility ([1]; Methanol): 31 mM (≈ 34.1 mg/mL)
Solubility ([1]; Water): 260 mM (≈ 286 mg/mL)
complex stoichiometry with potassium ions [2]: 1:2 complex
primary binding constant ([2]; potassium ions (KCl)): 28000 M⁻¹
secondary binding constant ([2]; potassium ions (KCl)): 150 M⁻¹
